US6747149B2, “Glucamine salts for treating hepatitis virus infections” (G. D. Searle & Co., priority 1999, dated 2004)
Like-named read-outs stand apart in the source and are kept apart here. Marks after values point to notes of the source that are not given here.

Columns and labels:
[1] = test system: woodchuck hepatitis virus (WHV); test: Woodchuck model, N-nonyl-DNJ alone, BID oral dosing; format: in vivo
Description: In order to evaluate the efficacy of N-nonyl-DNJ in combination with 3TC (or other nucleoside or nucleotide analogs) against Hepatitis B virus in a woodchuck animal model, an monotherapy experiment using N-nonyl-DNJ alone was first conducted. This was necessary to determine if N-nonyl-DNJ has any anti-HBV effect in the woodchuck and, if N-nonyl-DNJ has a beneficial effect, to design a combination study based on the dose-response relationship of this drug alone.
Therefore, five groups of four animals each (all groups had both sexes, all but the control had two of each sex) were assigned to 0, 12.5, 25, 50, and 100 mg/kg/day with BID oral dosing. These were lab-reared wild animals. All animals were infected with woodchuck hepatitis virus (WHV) as neonates, and had been tested positive on serological tests for WHV surface antigen. Blood samples were drawn one week prior to dosing (−1 week), immediately before dosing (0 weeks), weekly during dosing (1, 2, 3, and 4 weeks), and after the end of dosing (5, 6, 8, and 10 weeks).
(§1) There are two measures of drug efficacy: reduction in total HBV DNA (measured by quantitative PCR), and reduction in HBV DNA from capsids with intact surface glycoproteins, which is the active form of the virus (measured by an ELISA-like immune precipitation assay followed by quantitative PCR).
Before models are fitted to the data, a log transform was applied because: 1) the variation in IPDNA increases with increasing IPDNA values; the log transformation gives values with a nearly constant variation, and 2) it is expected that drug effects will appear as a constant multiplier of the IPDNA level. Because there are zero values of IPDNA, a small value (about ½ of the smallest non-zero value) was added to all values before the log transform.
Two approaches were used to model the changes in slope to week with dose of N-nonyl-DNJ: a linear modeling approach and a nonlinear model. Both approaches assume that the (linear) rate of change of the Log(IPDNA) measure over the dosing period is the “right” measure to reflect the effect of the drug on the virus. Both approaches are fit in stages, and the first stage is common to both approaches. First, a simple straight line regression model is fit using weeks 0-4 to predict log(IPDNA_+—10) separately for each animal by run combination. In the second stage, the response variable is the slope fitted in the first stage.
For the linear approach, a model is fit with slope to week as the response where run is considered a block, dose has a significant effect (almost all of this effect is due to a slope to dose), and the relevant error for testing the effect of dose is the variation among animals treated alike (after the adjustment for the runs as blocks). This is similar to using the calibration data within each run to first adjust each run's data to a common virus DNA concentration; the difference is that here the data from the woodchucks are used for the run adjustment rather than only the calibration data.
For the nonlinear approach, a four parameter logistic model is fit with the slope to week as the response and the dose as the predictor. Again, run is considered a block, but because no run has all weeks, it is not possible to fully reflect the blocking in the nonlinear approach. […]

HBV = test: Cell culture experiments with N-nonyl-DNJ: total HBV DNA and immune precipitated DNA; format: cell-based, hepatitis B virus
Description: as §1

Hepatitis B Virus = test: Hepatitis B virus secretion by chronically HBV secreting HepG2.2.15 cells (immunoprecipitated virion DNA, PCR); format: cell-based; conditions: for [] for 90% HBV secretion inhibition: based upon duplicate PCR results; for Relative amount of HBV secreted As A % of Control: 3 days, preS1 immunoprecipitation, PCR
Protocol: (§2) The anti-hepatitis B virus activity and effect on cell viability of a number of different N-substituted-1,5-dideoxy-1,5-imino-D-glucitol compounds were assessed using an in vitro assay employing chronically hepatitis B virus secreting HepG2.2.15 cells. The method employed was essentially that described in Block et al. (1994) Proc. Natl. Acad. Sci. USA 91:2235-2239.

HepG2.2.15 Cells [2] = test: MTT-based colorimetric assay of cell viability
Protocol: as §2

HepG2.2.15 Cells [3] = test: Viability of HepG2.2.15 cells, trypan blue exclusion; format: cell-based; conditions: 3 days, cells excluding trypan blue
Protocol: as §2

Compound: CCCCCCCCCN1C[C@H](O)[C@@H](O)[C@H](O)[C@H]1CO [N-nonyl-DNJ, N-(n-nonyl)-1,5-dideoxy-1,5-imino-D-glucitol]
- effect on total HBV DNA measurements ([1]; all dose levels, pre-dose and dosed portions, quantitative PCR): no effect
- average minimum slope observed ([1]; decrease of IPDNA, dosing weeks 0-4): 0.31 fewer Log(IPDNA g/mL)/week
- decrease of IPDNA at average minimum slope ([1]; dosing weeks 0-4): about 25 %/week
- slope of IPDNA levels over the dosing period due to dose or plasma level ([1]; weeks 0-4, straight line fitted per animal): significant difference in the slope
- approximate effective monotherapy dose ([1]; woodchucks): about 16 mg/kg/day
- effect on the immune precipitated DNA (IPDNA) (HBV): marked effect
- effect on total HBV DNA (HBV): little or no effect

Compound: CCCCN1C[C@H](O)[C@@H](O)[C@H](O)[C@H]1CO [NBDNJ, N-(n-butyl-)-1,5-dideoxy-1,5-imino-D-glucitol]
- [] for 90% HBV secretion inhibition (Hepatitis B Virus): 0.5-1.0* microgs per ml
- Relative amount of HBV secreted As A % of Control (Hepatitis B Virus; concentration [200]): 37.0 +/− 13 (n = 15) %
- Relative amount of HBV secreted As A % of Control (Hepatitis B Virus; concentration [200], listed as 1): 85.0 +/− 5 (n = 8) %
- Relative amount of HBV secreted As A % of Control (Hepatitis B Virus; concentration [1000]): 3.2 +/− 5 (n = 15) %
- Relative amount of HBV secreted As A % of Control (Hepatitis B Virus; concentration [1000], listed as 1): 35.0 +/− 6 (n = 8) %
- [] for a 50% reduction in MMT (HepG2.2.15 Cells [2]): 100-200 microgs per ml

Compound: CCCCN1C[C@H](OC(C)=O)[C@@H](OC(C)=O)[C@H](OC(C)=O)[C@H]1COC(C)=O [Example 2, 1,5-(Butylimino)-1,5-dideoxy-D-glucitol, Tetraacetate]
- [] for 90% HBV secretion inhibition (Hepatitis B Virus): >200*s* microgs per ml
- Relative amount of HBV secreted As A % of Control (Hepatitis B Virus; concentration [200]): 107.0 +/− 12 (n = 3) %
- Relative amount of HBV secreted As A % of Control (Hepatitis B Virus; concentration [1000]): 38.0 +/− 15 (n = 3) %
- % Viable +/− 1 S.D. (HepG2.2.15 Cells [3]; concentration [200]): 90 +/− 6 (n = 4) %
- % Viable +/− 1 S.D. (HepG2.2.15 Cells [3]; concentration [1000]): 89 +/− 4 (n = 4) %

Compound: N-[2-(4-Trifluoromethylphenyl)-ethyl]-glucamine [Example 7]
- [] for 90% HBV secretion inhibition (Hepatitis B Virus): >200** microgs per ml
- [] for a 50% reduction in MMT (HepG2.2.15 Cells [2]; HepG2.2.15 cells): >200 microgs per ml
